Measurements taken from patent publication US20250304549A1, “HYDROXYAMIDE DERIVATIVE AND USE THEREOF” (SICHUAN HUIYU PHARMACEUTICAL CO., LTD., priority 2022, published 2025).
Structures can show the parent of a compound that is named as a salt.

Tests used:
pan-HDAC = test: In vitro enzyme inhibition assay - HDAC (HDAC-Glo I/II), pan-HDAC; format: biochemical
Description: 2. In Vitro Enzyme Inhibition Assay—HDAC
The effect of the compound on the enzymatic activity of pan-HDAC and two isoforms (HDAC1 and HDAC8) was examined using the HDAC-Glo I/II Assay and Screening System assay to assess the level of inhibition of HDAC protease activity and selectivity in each isoform. The proteins and detection reagents were from the HDAC-Glo™ I/II Assay and Screening System (Promega). A 1 mM stock solution of the compound was prepared in DMSO and diluted in a 5-fold gradient to create a series of 8 concentrations, and a specific volume of the highest concentration was diluted 25 times with HDAC Buffer to obtain 4× working solution of the compound. […] The 384-well plate was then read on a multifunctional microplate reader, with the Luminescence channel selected to record Luminescence values (RLU). The inhibition rate was calculated using the following formula: […]
(§1) Note: ‘Negative’ refers to the group without the inhibitor; ‘Blank’ refers to the group without the enzyme.
(§2) The IC50 value was calculated by fitting the inhibition rate by GraphPad Prism software, employing log (inhibitor) vs. response-Variable Slope (four parameters) model.

LSD1 = LSD1 (Homo sapiens (Human), UniProt O60341); test: In vitro enzyme inhibition assay - LSD1 (HTRF); format: biochemical
Description: 1. In Vitro Enzyme Inhibition Assay—LSD1
Initially, a master solution of 90 μM test compound (dissolved in DMSO) was prepared and sequentially diluted with DMSO in a 5-fold concentration gradient to yield a total of 9 concentrations of the compound working solution 1 (90×). Subsequently these 9 concentrations of working solution 1 were sequentially diluted by a 30-fold concentration gradient, i.e., 2 μL of working solution 1 was aspirated and added to 58 μL of Buffer, mixed on a vortex mixer with sufficient shaking to yield 9 concentrations of the screening test compound working solution 2 (3×). […] The mixture was incubated at room temperature for 15 minutes. […] Afterward, 2 μL of a termination solution (containing 5.4 mM 2-PCPA) was added to each well, mixed evenly, and incubated for another 15 minutes. Finally 4 μL of a pre-mixed antibody solution of Eu-anti H3K4 (PerkinElmer, TRF0404-D) and allophycocyanin (Prozyme, PJ27S) (1:1) was added to each well, mixed evenly, and incubated for 60 minutes. […] The inhibition rate was calculated through the following formula: […]
as §1, §2

NCI-H1417 cells = test: In vitro cell inhibition assay - H1417 cell proliferation (CellTiter-Glo); format: cell-based; conditions: Homo sapiens, NCI-H1417, H1417 small cell lung cancer cell proliferation
Description: 3. In Vitro Cell Inhibition Assay—H1417 Cell Proliferation
The inhibitory effect of the compounds on cell proliferation was assessed by detecting the number of viable cells using the CellTiter-Glo® reagent. […] The compounds were sequentially diluted in a 5-fold concentration gradient with DMSO to obtain 8 different concentrations o. These were diluted with BEGM (containing 10% FBS) cell culture medium to obtain the compound working solution (2×), which was added to the cell supernatant at 100 μL per well. The incubation continued for 7 days at 37° C., 5% CO2. The plate was then removed and equilibrated to room temperature (25° C.) along with the CellTiter-Glo® mixing reagent for 10-30 minutes. After centrifugation, 100 μL of the culture medium was carefully aspirated from each well, and 85 μL of CellTiter-Glo® reagent was added. The cells were thoroughly mixed with the CellTiter-Glo® mixing reagent using a microplate shaker for 2 min. and then incubated at room temperature for 10 min. The 96-well plate was subsequently placed on a multifunctional microplate reader to record the Luminescence values (RLU). • The inhibition rate was calculated using the following formula: […]
(§3) Note: ‘Negative’ refers to the group without inhibitors; ‘Blank’ refers to the group without cells.
(§4) The IC50 value was determined by fitting the inhibition rate by GraphPad Prism software.

NCI-H69 cells = test: In vitro cell inhibition assay - NCI-H69 cell proliferation (CellTiter-Glo); format: cell-based; conditions: Homo sapiens, NCI-H69, H69 small cell lung cancer cell proliferation
Description: 4. In Vitro Cell Inhibition Assay—NCI-H69 Cell Proliferation
The inhibitory effect of the compounds on cell proliferation was assessed by detecting the number of viable cells using the CellTiter-Glo® reagent. NCI-H69 cells in the logarithmic growth phase were collected and inoculated into transparent bottom 96-well plates at a density 1×10^3 cells per well with 100 μL medium, and incubated at 37° C., 5% CO2 overnight. The compounds were sequentially diluted in a 5-fold concentration gradient with DMSO to obtain 8 different concentrations These were then diluted with RPMI-640 (containing 20% FBS) cell culture medium to obtain the compounds working solution (2×), which was added to the cell supernatant at 100 μL per well. The incubation continued for 7 days at 37° C., 5% CO2. The plate was then removed and equilibrated to room temperature (25° C.) along with the CellTiter-Glo® mixing reagent for 10-30 minutes. After centrifugation at 1200 rpm for 5 minutes, 120 μL of the culture medium was carefully aspirated from each well, and 60 μL of CellTiter-Glo® reagent was added. The cells were thoroughly mixed with the CellTiter-Glo® mixing reagent using a microplate shaker for 2 min. and then incubated at room temperature for 10 min. The 96-well plate was subsequently placed on a multifunctional microplate reader to record the Luminescence values (RLU).
The inhibition rate was calculated using the following formula: […]
as §3, §4

Structure (SMILES)	IC50 (pan-HDAC)	IC50 (LSD1)	IC50 (NCI-H1417 cells)	IC50 (NCI-H69 cells)
CC(C)(O)Cn1nnc2cc(-c3cnc(N4CCC(NCc5ccc(/C=C/C(=O)NO)cc5)CC4)c(C#N)c3-c3ccc(C#N)c(F)c3)c(F)c(F)c21 [Example 226, (E)-3-(4-(((1-(3-Cyano-4-(4-cyano-3-fluorophenyl)-5-(6,7-difluoro-1-(2-hydroxy-2-methylpropyl)-1H-benzo[d][1,2,3]triazol-5-yl)pyridin-2-yl)piperidin-4-yl)amino)methyl)phenyl-N-hydroxyacrylamide formate]	24.8 nM	0.02 nM	2.31 nM	99.2 nM
COc1ccc(-c2cnc(N3CCC(NCc4ccc(SCC(=O)NO)cc4)CC3)c(C#N)c2-c2ccc(C#N)c(F)c2)cc1O [Example 216, 2-((4-((1-(3-cyano-4-(4-cyano-3-fluorophenyl)-5-(3-hydroxy-4-methoxyphenyl)pyridin-2-yl)piperidin-4-yl)amino)methyl)phenyl) thio)-N-hydroxyacetamide formate]	3.57 nM	0.15 nM	6.06 nM	51.6 nM
COc1ccc(-c2cnc(N3CCC(NCc4ccc(/C=C(\C)C(=O)NO)nc4)CC3)c(C#N)c2-c2ccc(C#N)c(F)c2)cc1O [Example 220, (E)-3-(5-(((1-(3-Cyano-4-(4-cyano-3-fluorophenyl)-5-(3-hydroxy-4-methoxyphenyl)pyridin-2-yl)piperidin-4-yl)amino)methyl)pyridin-2-yl)-N-hydroxy-2-methylacrylamide formate]	937 nM	0.42 nM	6.86 nM	2290 nM
COc1ccc(-c2cnc(N3CCC(NCc4ccc(/C=C/C(=O)NO)cc4)C(C)C3)c(C#N)c2-c2ccc(C#N)c(F)c2)cc1O (stereo not shown) [Example 242, (E)-3-(4-(((1-(3-Cyano-4-(4-cyano-3-fluorophenyl)-5-(3-hydroxy-4-methoxyphenyl)pyridin-2-yl)-3-methylpiperidin-4-yl)amino)methyl)-N-hydroxyacrylamide formate]	16 nM	2.44 nM	18.4 nM	17.8 nM
COc1ccc(-c2cnc(N3CCC(NCc4ccc(CCC(=O)NO)cc4Cl)CC3)c(C#N)c2-c2ccc(C#N)c(F)c2)cc1O [Example 222, 3-(3-chloro-4-((1-(3-cyano-4-(4-cyano-3-fluorophenyl)-5-(3-hydroxy-4-methoxyphenyl)pyridin-2-yl)piperidin-4-yl)amino)methyl) phenyl)-N-hydroxypropanamide formate]	11.5 nM	0.03 nM	6.42 nM	35.8 nM
COc1cc(F)c(-c2cnc(N3CCC(NCc4ccc(/C=C/C(=O)NO)cc4)CC3)c(C)c2-c2ccc(C#N)nc2)cc1O [Example 262, (E)-3-(4-(((1-(6-Cyano-5′-(2-fluoro-5-hydroxy-4-methoxyphenyl)-3′-methyl-[3,4′-bipyridin]-2′-yl)piperidin-4-yl)amino)methyl)phenyl)-N-hydroxyacrylamide formate]	0.61 nM	7.04 nM	11.8 nM	11.1 nM
N#Cc1ccc(-c2c(-c3ccc(N4CCOCC4)c(O)c3)cnc(N3CCC(NCc4ccc(/C=C/C(=O)NO)cn4)CC3)c2C#N)cc1F [Example 246, (E)-3-(6-(((1-(3-Cyano-4-(4-cyano-3-fluorophenyl)-5-(3-hydroxy-4-morpholinophenyl)pyridin-2-yl)piperidin-4-yl)amino)methyl)pyridin-3-yl)-N-hydroxyacrylamide formate]	5.38 nM	0.93 nM	10.8 nM	14.3 nM
CC1(NCc2ccc(/C=C/C(=O)NO)cc2)CCN(c2ncc(-c3ccc(OCC4(O)CC4)c(O)c3)c(-c3ccc(C#N)c(F)c3)c2C#N)CC1 [Example 229, (E)-3-(4-(1-(3-cyano-4-(4-cyano-3-fluorophenyl)-5-(3-hydroxy-4-((1-hydroxycyclopropyl)methoxy)phenyl)pyridin-2-yl)-4-methylpiperidin-4-yl)amino)methyl) phenyl)-N-hydroxyacrylamide formate]	30.8 nM	0.88 nM	9.36 nM	529 nM
CC(NC1CCN(c2ncc(-c3ccc(OCC(C)(C)O)c(O)c3)c(-c3ccc(C#N)c(F)c3)c2C#N)CC1)c1ccc(/C=C/C(=O)NO)cc1 (stereo not shown) [Example 235, (E)-3-(4-(1-((1-(3-Cyano-4-(4-cyano-3-fluorophenyl)-5-(3-hydroxy-4-(2-hydroxy-2-methylpropoxy)phenyl)pyridin-2-yl)piperidin-4-yl)amino)ethyl)phenyl)-N-hydroxyacrylamide formate]	8.01 nM	2.38 nM	2.35 nM	19.2 nM
COc1ccc(-c2cnc(N3CCC(NCc4ccc(/C=C/C(=O)NO)cc4F)CC3)c(F)c2-c2ccc(C#N)nc2)cc1O [Example 269, (E)-3-(4-(((1-(6-Cyano-3′-fluoro-5′-(3-hydroxy-4-methoxyphenyl)-[3,4′-bipyridin]-2′-yl)piperidin-4-yl)amino)methyl)-3-fluorophenyl)-N-hydroxyacrylamide hydrochloride]	0.93 nM	193 nM	2.66 nM	1.87 nM
N#Cc1ccc(-c2c(-c3ccc(Cl)c(O)c3)cnc(N3CCC(NCc4ccc(/C=C/C(=O)NO)cn4)CC3)c2C#N)cc1F [Example 239, (E)-3-(6-(((1-(5-(4-Chloro-3-hydroxyphenyl)-3-cyano-4-(4-cyano-3-fluorophenyl)pyridin-2-yl)piperidin-4-yl)amino)methyl)pyridin-3-yl)-N-hydroxyacrylamide formate]	10.2 nM	2.36 nM	11.6 nM	25.2 nM
COc1ccc(-c2cnc(N3CCC(NCc4ccc(/C=C(\F)C(=O)NO)cc4)CC3)c(F)c2-c2ccc(C#N)nc2)cc1O [Example 271, (Z)-3-(4-(((1-(6-Cyano-3′-fluoro-5′-(3-hydroxy-4-methoxyphenyl)-[3,4′-bipyridin]-2′-yl)piperidin-4-yl)amino)methyl)phenyl-2-fluoro-N-hydroxyacrylamide formate]	0.83 nM	35.1 nM	2.19 nM	1.8 nM
COc1ccc(-c2cnc(N3CCC(NCc4ccc(/C=C/C(=O)NO)cc4)CC3)c(CC#N)c2-c2ccc(C#N)nc2)cc1O [Example 261, (E)-3-(4-(((1-(6-Cyano-3′-(cyanomethyl)-5′-(3-hydroxy-4-methoxyphenyl)-[3,4′-bipyridin]-2′-yl)piperidin-4-yl)amino)methyl)phenyl)-N-hydroxyacrylamide formate]	1.42 nM	3.18 nM	19 nM	8.47 nM
